The values that follow come from patent US11407781B2, “Equatorially modified polymer linked multimers of guanosine-3′, 5′-cyclic monophosphates” (GRAYBUG VISION, INC., priority 2016, dated 2022).

This data set in a line: Determination of lipophilicity by RP-18 HPLC retention (log k′g). Format: physicochemical. To be noted: RP-18 reversed phase HPLC, gradient elution, ion pair chromatography with triethylammonium cation. The text has this:
Lipophilicity information is thus often only obtained by fragment analysis and corresponding calculations.
An established HPLC method, which is based on retention data on RP-18 reversed phase silica during gradient elution, was used for the determination of lipohilicity.
Instead of log P the method yields the descriptor log k′g, ranking analytes according to their lipophilicity on a logarithmic scale as well. Since charged molecules such as cyclic nucleotides have only hardly any retention on reversed phases, ion pair chromatography with the lipophilic triethylammonium cation is used.

As to `CC(C)c1ccc(Sc2nc3c(=O)n4cc(-c5ccccc5)[nH]c4nc3n2[C@@H]2O[C@@H]3CO[P@@](=O)(S)O[C@H]3[C@H]2O)cc1` (single isomer, unassigned) [Compound 35, 8-(4-Isopropylphenylthio)-β-phenyl-1,N^2-ethenoguanosine-3′,5′-cyclic monophosphorothioate, Rp-isomer], the “log k′g” value was determined as 3.815.
